The subject of data set [1] is Staphylococcus aureus. In words: Antimicrobial activity against methicillin-resistant Staphylococcus aureus CCARM 3090 after 18 hrs. The data set is classed as functional. The note with it: CCARM 3090, 18 h.
In data set [2] the test system is Staphylococcus aureus. In words: Induction of cytoplasmic membrane depolarization in Staphylococcus aureus KCTC 1621 at 2 to 8 times MIC concentration by DiSC3(5)-dye based fluorescence spectrophotometry. The data set is classed as functional, organism-based.
The test system of data set [3] is Staphylococcus aureus. The data set is described as follows: Antimicrobial activity against Staphylococcus aureus KCTC 1621 after 18 hrs. The format is functional. The note with it: KCTC 1621, 18 h.
Data set [4] relates to Pseudomonas aeruginosa. In words: Antimicrobial activity against multidrug-resistant Pseudomonas aeruginosa CCARM 2095 after 18 hrs. The data set is classed as functional. The note with it: CCARM 2095, 18 h.
For data set [5], the system named is Staphylococcus aureus. The data set is described as follows: Antimicrobial activity against methicillin-resistant Staphylococcus aureus CCARM 3089 after 18 hrs. The format is functional. The note with it: CCARM 3089, 18 h.
The test system of a further data set is Salmonella typhimurium. In words: Antimicrobial activity against Salmonella typhimurium KCTC 1926 after 18 hrs. The format is functional, Salmonella enterica subsp. enterica serovar Typhimurium. The note with it: Salmonella enterica, KCTC 1926, 18 h.
Data set [6] deals with Pseudomonas aeruginosa. In words: Antimicrobial activity against Pseudomonas aeruginosa KCTC 1637 after 18 hrs. The format is functional. The note with it: KCTC 1637, 18 h.
Data set [7] has as its system Staphylococcus aureus. In words: Antimicrobial activity against methicillin-resistant Staphylococcus aureus CCARM 3095 after 18 hrs. The note with it: CCARM 3095, 18 h. The format is functional.
Another data set concerns Enterococcus faecium. The data set is described as follows: Antimicrobial activity against vancomycin-resistant Enterococcus faecium ATCC 51559 after 18 hrs. The format is functional. The note with it: ATCC 51559, 18 h.
A further data set concerns Bacillus subtilis. In words: Antimicrobial activity against Bacillus subtilis KCTC 3068 after 18 hrs. The note with it: KCTC 3068, 18 h. The data set is classed as functional.
Data set [8] deals with Staphylococcus epidermidis. In words: Antimicrobial activity against Staphylococcus epidermidis KCTC 1617 after 18 hrs. The note with it: KCTC 1617, 18 h. The format is functional.
The subject of data set [9] is Staphylococcus aureus. In words: Induction of membrane permeabilization in Staphylococcus aureus KCTC 1621 at 2 to 8 times MIC concentration up to 300 secs by SYTOX green uptake assay. The data set is classed as functional, organism-based.
Data set [10] relates to Escherichia coli. In words: Antimicrobial activity against Escherichia coli KCTC 1682 after 18 hrs. The data set is classed as functional. The note with it: KCTC 1682, 18 h.
In data set [11] the test system is Staphylococcus aureus. In words: Drug penetration in Staphylococcus aureus KCTC 1621 at MIC concentration after 20 mins using FITC-labelled compounds by confocal laser-scanning microscopy. The data set is classed as ADME, organism-based. The note with it: in vivo.
The nature of data set [12]: Drug uptake in Staphylococcus aureus KCTC 1621 cytoplasm at 30 uM after 20 mins using FITC-labeled compound by confocal laser-scanning microscopy. The data set is classed as ADME.
Data set [13] deals with Escherichia coli. In words: Drug penetration in Escherichia coli KCTC 1682 at MIC concentration after 20 mins using FITC-labelled compounds by confocal laser-scanning microscopy. The data set is classed as ADME, organism-based. The note with it: in vivo.
The test system of data set [14] is Escherichia coli. In words: Antimicrobial activity against Escherichia coli KCTC 1682 after 18 hrs using FITC-labelled compound. The data set is classed as functional.
Data set [15] is described as follows: Drug uptake in Escherichia coli KCTC 1682 cytoplasm at 30 uM after 20 mins using FITC-labeled compound by confocal laser-scanning microscopy. The data set is classed as ADME.
Data set [16] has as its system Staphylococcus aureus. The data set is described as follows: Antimicrobial activity against Staphylococcus aureus KCTC 1621 after 18 hrs using FITC-labelled compound. The format is functional.
Data set [17] has as its system Escherichia coli. The data set is described as follows: Induction of membrane permeabilization in Escherichia coli KCTC 1682 assessed as PI-positive cells at 16 uM after 1 to 2 hrs by propidium iodide-staining based flow cytometry (reference value: 2.36%). The format is functional. In general terms: Flow cytometry measures light scatter and fluorescence of single cells or particles in a stream.

≈ marks a conversion by molar mass, not a printed value. Calls of active or inactive are those of the source. Starred links: 1 amine or outer side, 2 acyl side, 3 side chain; linkers in the order of their positions; H or OH if unused. Positions of bridges follow the written chain, without caps; N, C: chain ends. Non-standard residues stand in square brackets, D forms with d. Residues, ends and D or L forms follow the SMILES beside them. *: point of attachment. X1 = NC(=O)C[C@@H](C(=O)[*:2])N(c1ccc2c(c1)C(=O)OC21c2ccc(O)cc2Oc2cc(O)ccc21)[*:1]; FITC = O=C1OC2(c3ccc(O)cc3Oc3cc(O)ccc32)c2ccc(NC(=S)*)cc21; Ahx = NCCCCCC(=O)O

In general, MIC refers to the smallest concentration in the dilution series that meets the test's criterion for growth inhibition. Low readings indicate inhibition by little substance, high ones a need for much substance. As for `CC[C@H](C)[C@H](NC(=O)[C@@H](NC(=O)[C@H](Cc1cnc[nH]1)NC(=O)[C@H](CCCNC(=N)N)NC(=O)[C@H](C)NC(=O)[C@H](CCCNC(=N)N)NC(=O)[C@H](CC(C)C)NC(=O)[C@H](CO)NC(=O)[C@H](C)NC(=O)[C@H](CC(C)C)NC(=O)[C@@H](N)CC(N)=O)[C@@H](C)O)C(=O)N1CCC[C@H]1C(=O)N[C@@H](CCC(N)=O)C(=O)N[C@@H](CCCNC(=N)N)C(=O)N[C@@H](CCCCN)C(=O)N[C@@H](Cc1ccccc1)C(=O)NCC(=O)N[C@@H](CCCNC(=N)N)C(=O)N[C@@H](CCCNC(=N)N)C(N)=O` (H-NLASLRARHTIPQRKFGRR-NH2), the MIC in the data set with Staphylococcus aureus [1] was 25 µM (≈ 56.9 µg/mL); against Staphylococcus aureus [3] it was 12.5 µM (≈ 28.5 µg/mL); in the data set with Pseudomonas aeruginosa [4] it was 25 µM (≈ 56.9 µg/mL); against Staphylococcus aureus [5] it was 12.5 µM (≈ 28.5 µg/mL); in the data set on Salmonella typhimurium it was 6.3 µM (≈ 14.3 µg/mL); in the data set with Pseudomonas aeruginosa [6], 6.3 µM (≈ 14.3 µg/mL). Besides, the MIC against Staphylococcus aureus [7] came out at 25 µM (≈ 56.9 µg/mL); in the data set with Enterococcus faecium, 50 µM (≈ 114 µg/mL); in the data set on Bacillus subtilis, 6.3 µM (≈ 14.3 µg/mL); in [8], 6.3 µM (≈ 14.3 µg/mL); against Escherichia coli [10], 6.3 µM (≈ 14.3 µg/mL). For the same compound, the result in the data set with Staphylococcus aureus [2] and in the data set with Staphylococcus aureus [9] was inactive.

For `CC[C@H](C)[C@H](NC(=O)[C@@H](NC(=O)[C@H](Cc1cnc[nH]1)NC(=O)[C@H](CCCNC(=N)N)NC(=O)[C@H](C)NC(=O)[C@H](CCCNC(=N)N)NC(=O)[C@H](CC(C)C)NC(=O)[C@H](CO)NC(=O)[C@H](C)NC(=O)[C@H](CS)NC(=O)[C@H](CC(C)C)NC(=O)[C@@H](N)CC(N)=O)[C@@H](C)O)C(=O)N1CCC[C@H]1C(=O)N[C@@H](CCC(N)=O)C(=O)N[C@@H](CS)C(=O)N[C@@H](CCCNC(=N)N)C(=O)N[C@@H](CCCCN)C(=O)N[C@@H](Cc1ccccc1)C(=O)NCC(=O)N[C@@H](CCCNC(=N)N)C(=O)N[C@@H](CCCNC(=N)N)C(N)=O` (H-NLCASLRARHTIPQCRKFGRR-NH2), the minimal inhibitory concentration (MIC) was 25 µM (≈ 62.1 µg/mL) in the data set with Staphylococcus aureus [1]; 12.5 µM (≈ 31 µg/mL) against Staphylococcus aureus [3]; 50 µM (≈ 124 µg/mL) in the data set with Pseudomonas aeruginosa [4]; 12.5 µM (≈ 31 µg/mL) against Staphylococcus aureus [5]; 12.5 µM (≈ 31 µg/mL) in the data set with Salmonella typhimurium; 12.5 µM (≈ 31 µg/mL) in the data set with Pseudomonas aeruginosa [6]. Also, the MIC with Staphylococcus aureus [7] turned out to be 12.5 µM (≈ 31 µg/mL); against Enterococcus faecium it was 25 µM (≈ 62.1 µg/mL); against Bacillus subtilis it was 12.5 µM (≈ 31 µg/mL); in data set [8], 12.5 µM (≈ 31 µg/mL); in the data set with Escherichia coli [10], 12.5 µM (≈ 31 µg/mL). Moreover, the result in the data set with Staphylococcus aureus [2] and with Staphylococcus aureus [9] was inactive.

For the compound `CC[C@H](C)[C@H](NC(=O)[C@@H](NC(=O)[C@H](Cc1cnc[nH]1)NC(=O)[C@H](CCCNC(=N)N)NC(=O)[C@H](C)NC(=O)[C@H](CCCNC(=N)N)NC(=O)[C@H](CC(C)C)NC(=O)[C@H](CO)NC(=O)[C@H](C)NC(=O)[C@H](CO)NC(=O)[C@H](CC(C)C)NC(=O)[C@H](CC(N)=O)Nc1ccc2c(c1)C(=O)OC21c2ccc(O)cc2Oc2cc(O)ccc21)[C@@H](C)O)C(=O)N1CCC[C@H]1C(=O)N[C@@H](CCC(N)=O)C(=O)N[C@@H](CO)C(=O)N[C@@H](CCCNC(=N)N)C(=O)N[C@@H](CCCCN)C(=O)N[C@@H](Cc1ccccc1)C(=O)NCC(=O)N[C@@H](CCCNC(=N)N)C(=O)N[C@@H](CCCNC(=N)N)C(N)=O` (H-[X1]LSASLRARHTIPQSRKFGRR-NH2), the Drug uptake entry (with Staphylococcus aureus [11]; in data set [12]; in the data set with Escherichia coli [13]; in [15]) was “Active” throughout. Moreover, the result in the data set on Escherichia coli [14] and with Staphylococcus aureus [16] was Active.

As for `CC[C@H](C)[C@@H]1NC(=O)[C@H]([C@@H](C)O)NC(=O)[C@H](Cc2cnc[nH]2)NC(=O)[C@H](CCCNC(=N)N)NC(=O)[C@H](C)NC(=O)[C@H](CCCNC(=N)N)NC(=O)[C@H](CC(C)C)NC(=O)[C@H](CO)NC(=O)[C@H](C)NC(=O)[C@@H](NC(=O)[C@H](CC(C)C)NC(=O)[C@H](CC(N)=O)NC(=O)CCCCCNC(=S)Nc2ccc3c(c2)C(=O)OC32c3ccc(O)cc3Oc3cc(O)ccc32)CSSC[C@@H](C(=O)N[C@@H](CCCNC(=N)N)C(=O)N[C@@H](CCCCN)C(=O)N[C@@H](Cc2ccccc2)C(=O)NCC(=O)N[C@@H](CCCNC(=N)N)C(=O)N[C@@H](CCCNC(=N)N)C(N)=O)NC(=O)[C@H](CCC(N)=O)NC(=O)[C@@H]2CCCN2C1=O` ({FITC-Ahx}-NLCASLRARHTIPQCRKFGRR-NH2; disulfide 3-15), the Drug uptake entry in data set [12] and in [15] was “Active” in each case. Further, the MIC against Escherichia coli [14] (KCTC 1682, 18 h) was 12.5 µM (≈ 37.3 µg/mL); against Staphylococcus aureus [16] (KCTC 1621, 18 h), 12.5 µM (≈ 37.3 µg/mL).

Turning to `CC[C@H](C)[C@H](NC(=O)[C@H](CCCCN)NC(=O)[C@H](CCC(=O)O)NC(=O)[C@H](CCCCN)NC(=O)[C@H](CO)NC(=O)[C@H](CCCCN)NC(=O)[C@H](CCCNC(=N)N)NC(=O)[C@H](Cc1ccccc1)NC(=O)[C@H](Cc1ccccc1)NC(=O)[C@H](CC(=O)O)NC(=O)CNC(=O)[C@H](CC(C)C)NC(=O)[C@@H](N)CC(C)C)C(=O)NCC(=O)N[C@@H](CCCCN)C(=O)N[C@@H](CCC(=O)O)C(=O)N[C@@H](Cc1ccccc1)C(=O)N[C@@H](CCCCN)C(=O)N[C@@H](CCCNC(=N)N)C(=O)N[C@H](C(=O)N[C@H](C(=O)N[C@@H](CCC(N)=O)C(=O)N[C@@H](CCCNC(=N)N)C(=O)N[C@H](C(=O)N[C@@H](CCCCN)C(=O)N[C@@H](CC(=O)O)C(=O)N[C@@H](Cc1ccccc1)C(=O)N[C@@H](CC(C)C)C(=O)N[C@@H](CCCNC(=N)N)C(=O)N[C@@H](CC(N)=O)C(=O)N[C@@H](CC(C)C)C(=O)N[C@H](C(=O)N1CCC[C@H]1C(=O)N[C@@H](CCCNC(=N)N)C(=O)N[C@H](C(=O)N[C@@H](CCC(=O)O)C(=O)N[C@@H](CO)C(=O)O)[C@@H](C)O)C(C)C)[C@@H](C)CC)C(C)C)[C@@H](C)CC` [CATHELICIDIN], the Activity with Escherichia coli [17] was determined as 75.38%.

These data come from ChEMBL document CHEMBL4257591 (J Med Chem, 2018).
